{"source": "patent US20230383297A1", "about": "“NOVEL TARGETS FOR REACTIVATION OF PRADER-WILLI SYNDROME-ASSOCIATED GENES” (Duke University, priority 2020, published 2023)", "origin": "cited, not measured here", "system": "PWS cells", "conditions": "also causes DNA demethylation genome-wide", "data": [{"smiles": "Nc1ncn([C@H]2C[C@H](O)[C@@H](CO)O2)c(=O)n1", "note": "[5-Aza-DC]", "values": [{"measurement": "maternal gene expression from the PWS locus", "value": "reactivate maternal gene expression from the PWS locus"}]}]}
